The values below come from PMC7888557 (International journal of biological macromolecules, 2017).

The test addresses T1, S-adenosyl-L-homocysteine hydrolase from T. maritima (TmSAHase; iTmSAHase as purified, htTmSAHase after heat treatment) (Thermotoga maritima, UniProt O51933).
T1 sequence (O51933 1-404): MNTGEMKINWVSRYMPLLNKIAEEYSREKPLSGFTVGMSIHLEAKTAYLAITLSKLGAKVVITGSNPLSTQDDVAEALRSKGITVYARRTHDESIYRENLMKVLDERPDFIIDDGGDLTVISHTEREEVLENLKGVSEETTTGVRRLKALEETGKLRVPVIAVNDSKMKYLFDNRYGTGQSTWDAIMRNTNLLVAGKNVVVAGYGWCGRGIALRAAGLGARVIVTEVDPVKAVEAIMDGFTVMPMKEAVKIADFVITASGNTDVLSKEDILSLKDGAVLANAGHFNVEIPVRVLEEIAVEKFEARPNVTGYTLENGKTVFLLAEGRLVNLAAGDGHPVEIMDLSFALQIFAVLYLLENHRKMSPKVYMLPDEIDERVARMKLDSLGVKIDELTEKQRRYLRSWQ
The test is described as follows: isothermal titration calorimetry. Format: binding. (In ITC the heat of successive injections is recorded.)

Molecules are shown by their SMILES.

A word on the Kd: it is the free concentration of one partner at which half of the binding sites on the other are occupied at equilibrium, for simple one-to-one binding. Consider `Nc1ncnc2c1ncn2[C@@H]1O[C@H](COP(=O)(O)O)[C@@H](O)[C@H]1O` [AMP, adenosine 5′-monophosphate], for which the Kd runs as follows: (htTmSAHase/AMP) 25 ± 2 µM; (iTmSAHase/AMP) 30 ± 3 µM.
On to `Nc1ncnc2c1ncn2[C@@H]1O[C@H](CO)[C@@H](O)[C@H]1O` [Ado, adenosine], for which the Kd by setting is: (htTmSAHase/Ado) 8.8 ± 1.2 µM; (iTmSAHase/Ado) 19 ± 1.5 µM.
